# Laboratory results as given in patent publication US20240306641A1, “P-BOOSTER” (EUROCHEM ANTWERPEN, priority 2021, published 2024).
# Key:
# [1] = system: SPX1 phosphate starvation biomarker (pSPX1::GUS); assay: Chemical activity assessment: SPX1 suppression in Arabidopsis pSPX1::GUS reporter line (GUS stained area); format: in vivo, Arabidopsis thaliana; details: 50 μM compound, low phosphate modMS liquid medium, 96-well, 7 days after germination; low phosphate control of same plate
# Procedure: (§1) All Arabidopsis plant experiments were performed using the Arabidopsis thaliana Columbia-0 background. The Arabidopsis pSPX1::GUS line is described in the […] 2008, 54: 965-975. For rice, the cultivar Nipponbare was used. For maize, the cultivars DKC 2931 and 8104 were used for regular pot experiments and sand-based pot experiments, respectively. For soybean, the cultivar Primus was used. […] The medium was solidified due to the addition of 0.6% Gelrite, unless stated otherwise. In case of vertical plates (root length and root hair measurements), the medium was supplied with 0.5% of sucrose and 1 μM (low phosphate, 1 μM KH2PO4, 9.9 mM KCl), 10 μM (low phosphate 10 μM KH2PO4, 9.9 mM KCl) or 1.25 mM KH2PO4 (high phosphate). Arabidopsis seeds were stratified for 2 days at 4° C. before germination. Seedlings were germinated in climate-controlled growth chambers at 22° C. under continuous light ([…] m^−2 s^−1). Husked rice seeds were germinated on wetted Whatman paper for 2 days at 37° C. and then transferred to Sterivent boxes or square Petri dishes with solid medium. Maize and soybean seeds were wetted 24 hours at room temperature prior to sowing in pots.
# For the chemical activity assessment 3 to 8 seeds per well of Arabidopsis pSPX1::GUS line were sown in 96-well plates containing 150 μl of low phosphate modMS liquid medium containing 1% of sucrose. Compounds were added in 50 μM concentration, starting from a 5 mM stock of compounds solved in DMSO. Different chemical substances were separately added to different wells. Per plate, 16 control wells were used, 8 containing only the low phosphate medium and 1% DMSO, and 8 containing high phosphate medium and 1% DMSO. 7 days after germination, plates were scanned using a flatbed scanner (EPSON Expression 11000XL) and analyzed for leaf size. After scanning, the growth medium was replaced by GUS staining solution (see Plant Mol. Biol. Rep. 1994, 12: 37-42 for details) and incubated for 1.5 hours at 37° C. The plates were scanned a second time and analyzed for GUS signal area. Measurements of both leaf area and GUS signal area were conducted by filtering out and measure the green and blue signal, respectively using ImageJ software. If the green leaf area was 50% or less than the control, samples were omitted. Additionally, all results were visually screened for leaf size and GUS signal.
# To identify new substances that suppress the expression of the SPX1 phosphate starvation biomarker, we used an Arabidopsis SPX1 reporter line pSPX1::GUS. […] This observation was confirmed in two experimental repeats.
# [2] = system: Arabidopsis thaliana Columbia-0; assay: Root hair number and length quantification, Arabidopsis vertical plate; format: in vivo; details: for activity at 1 µM: 1 μM compound
# Procedure: as §1
# Roots were imaged using a stereomicroscope or a VHX-6000. Number and length of the root hairs parallel to the medium surface was determined at 4 to 6 mm above the root meristem. Root hair length was measured using the ImageJ software.
# [3] = system: Arabidopsis thaliana Columbia-0; assay: Arabidopsis horizontal plate leaf area assay; format: in vivo; details: Arabidopsis horizontal plates (Table 4); control without compound 63
# Procedure: as §1
# Arabidopsis primary root growth experiments were done on MS1/2 on vertical standing plates and roots were measured 11 days after germination. Roots were imaged using a flatbed scanner (EPSON Expression 11000XL) and root length was measured using ImageJ software. Arabidopsis shoot biomass was determined in 11 days after germination and growth on vertical standing plates with modMS. Arabidopsis leaf area was measured 21 days after germination on horizontal plates with modMS medium. Plates were scanned from the top using a flatbed scanner (EPSON Expression 11000XL) and the visible leaf area was measured using ImageJ software. Rice plate experiments used vertically standing Petri dishes containing MS1/2 medium (low phosphate—0.001 mM) solidified with 0.8% washed agar. Plant height was measured 11 days after germination. Rice box experiments used modMS medium and a low phosphate condition of 0.025 mM phosphate. Plant height was measured 13 days after germination. All growth experiments occurred with 10 μM of compound and in low phosphate conditions, unless stated otherwise. Controls always received the same DMSO concentration.
# maize cultivar DKC 2931 = assay: Regular maize pot experiment (potting soil); format: in vivo; details: low phosphate, 10 μM compound
# Procedure: as §1
# (§2) Regular Arabidopsis, soybean and maize pot experiments used an unfertilized potting soil, which was supplemented at the start of the experiment with 50 ml H2O containing 0.25 g/l NH4NO3 and 0.44 g/l (high phosphate) or no (maize and soybean) or 0.11 g/l KH2PO (Arabidopsis) for low phosphate conditions. For the sand-based maize pot experiment, sand was supplemented with 50 ml H2O containing 0.25 g/l NH4NO3 and 0.38 g/l (high phosphate) or 0.02 g/l (low phosphate) KH2PO4. Potassium was balanced via addition of KCl. Compound concentration was 10 μM, calculated based on the total water content after watering, and was added at the start of the experiment (Arabidopsis) or once a week (maize). Indexed chlorophyll contents were received via a SPAD 502 Plus Chlorophyll Meter. All parameters in the sand experiment, except the rate of leaf 4 (measured the first 4 days after emergence), were measured 19 days after sowing. Measurements in the pot experiments with potting soil were done after 4 weeks of growth, except for leaf 5, which was measured at 26 days. The long term maize pot experiment was performed on the automated Phenovision platform (see Mertens et al, 2021, https://doi.org/10.3389/fpls.2021.640914) with maize cultivars B104 and DKC2931. End point measurements occurred after 90 days (B104) or 70 days (DKC2931). Plants were grown on an unfertilized potting soil, which was fertilized bi-weekly with 50 mL modified Hoagland solution (2.5× concentrated; but with 0.25 mM KH2PO4).
# maize cultivar B104 = assay: Long term maize pot experiment, Phenovision platform, B104; format: in vivo; details: B104, end point after 90 days
# Procedure: as §2
# maize cultivar DKC2931 = assay: Long term maize pot experiment, Phenovision platform, DKC2931; format: in vivo; details: DKC2931, end point after 70 days
# Procedure: as §2
# [4] = Arabidopsis thaliana, read-out: Total root hair length per root (in % compared to the control)
# [5] = Arabidopsis vertical plate, high phosphate
smiles,measurement,setting,value
CCN(CCCNC(=O)CNC(=O)c1cc(C)cc(C)c1)c1ccccc1 [Example 6],GUS (SPX1) stained area normalized to the number of seeds,[1],8 pixels
CCN(C)c1ccccc1 [Example 9],activity at 1 µM,[2]; [4],390%
same,activity at 3 µM,"[2]; Arabidopsis thaliana, 3 μM compound, read-out: Total root hair length per root (in % compared to the control)",313%
same,activity at 10 µM,"[2]; Arabidopsis thaliana, 10 μM compound, read-out: Total root hair length per root (in % compared to the control)",758%
CCN(CCCNC)c1ccccc1 [Example 5],Average leaf area,[3],65 mm^2
CN(CCCNC(=O)CSc1nnnn1-c1ccccc1)c1ccccc1 [Example 10],GUS (SPX1) stained area normalized to the number of seeds,[1],298 pixels
CCN(CCCN)c1ccccc1 [Example 2],GUS (SPX1) stained area normalized to the number of seeds,[1],21 pixels
same,activity at 1 µM,[2]; [4],886%
same,Average root hair length per root in high phosphate conditions,[2]; [5],0.28 mm
same,Root hair number in high phosphate conditions (one plane in 2 mm region),[2]; [5],8
same,Total root hair length per root in high phosphate conditions,[2]; [5],0.27 cm
same,Plant height,maize cultivar DKC 2931; 4 weeks,62 cm
same,Shoot weight,maize cultivar DKC 2931; 4 weeks,4.5 g
same,Leaf 5,maize cultivar DKC 2931; 26 days,46 cm
same,Biomass,maize cultivar B104,37 g
same,Plant height,maize cultivar B104,719 mm
same,Plants with developed ears,maize cultivar B104,62%
same,Sum of leaf length,maize cultivar B104,6050 mm
same,Biomass,maize cultivar DKC2931,31 g
same,Plant height,maize cultivar DKC2931,1010 mm
same,Plants with developed ears,maize cultivar DKC2931,100%
same,Sum of leaf length,maize cultivar DKC2931,3950 mm
NCCCNc1ccccc1 [Example 3],Average leaf area,[3],69 mm^2
Cc1ccccc1-c1nnc(SCC(=O)NCCCN(C)c2ccccc2)n1C [Example 11],GUS (SPX1) stained area normalized to the number of seeds,[1],800 pixels
CN(CCCN)c1ccccc1 [Example 4],Average leaf area,[3],72 mm^2
